Laboratory results reported in patent publication US4703057A, “Beta-blocking thiochroman derivatives, compositions and method of use therefor” (ADIR Et Compagnie, priority 1985, dated 1987).
Values joined by “and” are separate entries in the source; they are usually repeats but may differ in a detail not shown here. Equal values may be shown once. Read-outs that look alike come from different tables or passages of the source.

Target: beta1 (right auricle of rats, stimulated by isoprenaline) (Rattus norvegicus, UniProt P18090)
Conditions: for log (x - 1): Van Rossum's table; for Kb: agonist isoprenaline; for type of antagonism towards isoprenaline: simple displacement of curves to the right
[1] = antagonist concentration 10^-8 M
[2] = pA2 (overall), n = 11, all antagonist concentrations
[3] = pA2, single preparation, antagonist concentration 10^-8 M
[4] = antagonist concentration 3 × 10^-8 M
[5] = antagonist concentration 3 × 10^-9 M

Sequence of beta1 (right auricle of rats, stimulated by isoprenaline) (P18090 whole entry): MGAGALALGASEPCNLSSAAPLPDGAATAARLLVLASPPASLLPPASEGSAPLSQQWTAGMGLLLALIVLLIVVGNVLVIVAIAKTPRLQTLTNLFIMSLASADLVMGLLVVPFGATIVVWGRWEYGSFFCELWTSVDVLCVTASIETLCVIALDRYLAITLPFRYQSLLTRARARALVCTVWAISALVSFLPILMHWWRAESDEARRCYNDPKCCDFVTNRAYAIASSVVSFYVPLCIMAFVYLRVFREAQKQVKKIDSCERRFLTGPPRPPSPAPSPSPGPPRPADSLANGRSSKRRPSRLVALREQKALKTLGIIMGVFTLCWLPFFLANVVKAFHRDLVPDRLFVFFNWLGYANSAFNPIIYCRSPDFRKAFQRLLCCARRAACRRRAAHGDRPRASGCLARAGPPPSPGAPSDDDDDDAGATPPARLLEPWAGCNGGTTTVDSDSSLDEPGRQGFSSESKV

Row | x (displacement of the curve) [1] | log (x - 1) [1] | Kb [2] [nM] | Kb [3] | beta1-adrenolytic activity (pharmacological tests in vitro, in words) | beta1-adrenolytic / beta1-antagonistic activity relative to tertatolol (relative to tertatolol) | type of antagonism towards isoprenaline | x (displacement of the curve) [4] | log (x - 1) [4] | x (displacement of the curve) [5] | log (x - 1) [5] | x (displacement of the curve) (antagonist concentration 10^-9 M) | Kb (pA2, single preparation, antagonist concentration 3 × 10^-8 M) | Kb (pA2, single preparation, antagonist concentration 3 × 10^-9 M) | times more powerful than propanolol (relative to propanolol) [times] | Compound
1 | 37.5 mm and 38 mm and 31 mm | 1.22 and 1.24 and 0.99 | 0.575 | 0.603 nM and 0.575 nM and 1.02 nM | very high beta1 -adrenolytic activity | twice that of tertatolol | competitive type | – | – | – | – | – | – | – | – | CC(C)(C)NCC(O)COc1cccc2c1SCCC2O (centres unmarked) [Compound of the formula I, 1-tert.-butylamino-3-(4-hydroxy-8-thiochromanyloxy)-2-propanol]
2 | 41 mm and 46 mm and 47 mm | 1.35 and 1.52 and 1.55 | 0.912 | 0.447 nM and 0.302 nM and 0.282 nM | – | – | competitive type | 35 mm and 32.5 mm | 1.13 and 1.05 | 25.5 mm and 27 mm and 19.5 mm | 0.78 and 0.84 and 0.54 | 6 mm and 7 mm and 3.5 mm | 2.24 nM and 2.69 nM | 0.501 nM and 0.437 nM and 0.871 nM | 6 | CC(C)(C)NCC(O)COc1cccc2c1SCCC2 (centres unmarked) [Tertatolol, 1-tert.-butylamino-3-(8-thiochromanyloxy)-2-propanol]
